Data: patent US20140093588A1 (Fred Hutchinson Cancer Research Center, priority 2006, published 2014)

How the values were obtained:
[1] = system: Murine J774 macrophages; experiment: Cell viability (MTT reduction) of macrophages treated with GSNO or ONOO— after sulfide pretreatment; assay type: cell-based; conditions: H2S tested on cells to define the highest tested concentration that would reduce viability
Description: Cells were cultured in 96-well plates until cells reached confluence essentially as described in C.
Cell respiration, an indicator of cell viability, was assessed by the mitochondrial-dependent reduction of MTT to formazen (Gross and Levi, 1992). Cells in 96-well plates were incubated at 37° C. with MTT (0.2 mg/ml for 60 min). Culture medium was removed by aspiration, and the cells were solubilized in DMSO. The extent of reduction of MTT to formazan within cells was quantitated by OD550 measurement.
H2S was tested on cells to define the highest tested concentration that would reduce viability. […] Following pretreatment, cells were treated with GSNO (1 mM, 3 mM, or 10 mM). Cell viability was measured at three hours.
Following pretreatment, ONOO— was added at concentrations of 0.3 mM, 0.6 mM, or 1 mM. Cell viability was measured at three hours.
Three hours after treatment, cell viability was measured.
In a related experiment, Murine J774 macrophages were grown until confluency in 96 well plates. Cells were pretreated with H2S (30 mM, 60 mM, 100 mM, 1 mM) for 30 minutes or 24 hours, then cells were incubated with GSNO or ONOO— for 3 hours. GSNO was used in 1 mM and 3 mM concentrations, while ONOO— was used in 300 mM concentration. Following treatment, cells were incubated for 20 minutes with fresh media containing 0.05% MTT. […] Optical density was measured at 550 nm.

[2] = at STP; cited from earlier work
[3] = system: LPS-induced IL-1 and TNF production; experiment: Bacterial lipopolysaccharide endotoxemia in mice, IL-1β and TNFα plasma levels by ELISA; assay type: in vivo, C57/BI6 mice; conditions: Tin-protoporphyrin IX 6 mg/kg ip, 30 min before Alzet H2S treatment
Description: Four groups of C57/BI6 mice were subjected to bacterial lipopolysaccharide (5 mg/kg ip). Three groups received H2S treatment (0.2 mg/kg/hr, 4 hrs), and a control group received saline using Alzet osmotic minipumps 30 minutes prior to the induction of endotoxemia (n=7−10/group) in both cases. The effect of the heme oxygenase inhibitor tin-protoporphyrin IX (6 mg/kg, ip, 30 min earlier to Alzet treatment) was also examined in two groups. After 4 hours, the animals were anesthetized using pentobarbital (60 mg/kg ip) and blood samples were taken. IL-1β and TNFα plasma levels were measured using a commercially available ELISA kit (R&D Systems).

[4] = cited from earlier work

S [H2S, hydrogen sulfide]
concentration that may confer a protective effect [1]: 1 mM

[N]=O [NO, nitric oxide]
soluble in water up to a concentration [2]: about 2 mM

C=Cc1c2[n-]c(c1C)/C=c1\[n-]/c(c(C)c1C=C)=C\c1[n-]c(c(CCC(=O)O)c1C)C=c1[n-]/c(c(C)c1CCC(=O)O)=C\2.[Sn+4] [Tin-protoporphyrin IX, tin-protoporphyrin IX]
effect of H2S on IL-1 after pretreatment with the heme oxygenase inhibitor [3]: attenuated

O=NOO [peroxynitrite]
half-life [4]: ~1 s
